Laboratory results published in US9540314B2, “N-cycloalkyl-N-[(cycloalkenylphenyl)methylene]-(thio) carboxamide derivatives” (BAYER INTELLECTUAL PROPERTY GMBH, priority 2012, dated 2017).

Columns and labels:
Pyrenophora teres = assay: In vivo preventive test on Pyrenophora teres (barley); settings: 500 ppm of active ingredient; barley plants, preventive spray; grading 14 days after contamination
How it was run: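 Barley plants ('Plaisant', 1-leaf stage) were sprayed with compound in acetone/tween/DMSO/water, then inoculated 24 h later with P. teres spores (12 000 spores per mL). Plants were held 48 h at 20° C./100% RH, then 12 days at 70-80% RH. Efficacy (%) was graded 14 days after inoculation relative to solvent-treated controls.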

Alternaria solani = assay: In vivo preventive test on Alternaria solani (tomato); settings: 100 ppm, evaluated 3 days after inoculation
Experimental: Solvent: 24.5 parts by weight of acetone
• 24.5 parts by weight of N,N-dimethylacetamide Emulsifier: 1 part by weight of alkylarylpolyglycol ether
To produce a suitable preparation of active compound, 1 part by weight of active compound is mixed with the stated amounts of solvent and emulsifier, and the concentrate is diluted with water to the desired concentration.
To test for preventive activity, young plants are sprayed with the preparation of active compound at the stated rate of application. After the spray coating has dried on, the plants are inoculated with an aqueous spore suspension of Alternaria solani. The plants are then placed in an incubation cabinet at approximately 20° C. and a relative atmospheric humidity of 100%.
The test is evaluated 3 days after the inoculation. 0% means an efficacy which corresponds to that of the untreated control while an efficacy of 100% means that no disease is observed.
Under these conditions, high (at least 90%) protection is observed at a dose of 100 ppm of active ingredient with the following compound from table B: […]

Q: Cc1nn(C)c(F)c1C(=O)N(C1CC1)C(C)c1ccccc1C1=CCCC1 (racemic) [I.1] was tested. Which Efficacy (Pyrenophora teres) did it give?
A: 97%

Q: And the Efficacy (Alternaria solani)?
A: 94%
